Experimental data as given in US20150104392A1, “COMPOSITIONS, BIOMARKERS AND THEIR USE IN THE TREATMENT OF CANCER” (Aptose Biosciences Inc., priority 2013, published 2015).

Experiments:
THP1 = experiment: Cell cycle analysis, propidium iodide flow cytometry; type: cell-based; settings: 0.5 μM, 16 hours
Description: (§1) THP1 and HL-60 AML cell lines were treated with DMSO (vehicle control) or 0.5 μM LOR-253 for 16 hours. Cells were washed once in PBS+1% FCS and fixed using ice cold 70% ethanol overnight. Fixed cells were washed twice, resuspended in PI/RNaseA solution, containing 20 μg/mL propidium iodide and 250 μg/mL RNaseA, and stained for 30 minutes at 37° C. Stained cells were analyzed using a BD FACSCalibur flow cytometer.

HL-60 [1] = experiment: as above; type: cell-based; settings: 0.5 μM, 16 hours
Description: as §1

RL = experiment: XTT antiproliferative assay; type: cell-based; settings: Homo sapiens, 120 h, Non-Hodgkin's Lymphoma, 5 days incubation
Description: (§2) Antiproliferative activity of LOR-253 was determined by XTT assay as follows. Adherent cells (2×10^3/well) in 100 μL of growth medium were seeded in 96-well cell culture plates and incubated overnight at 37° C. The medium was removed and replaced with a total volume of 100 μL growth medium containing LOR-253 (or 0.1% DMSO vehicle control), as described in the respective experiments. Suspension cells were plated (4-6×10^3/well) in 50 μL growth medium, and 50 μL growth medium containing LOR-253 (or 0.1% DMSO vehicle control) was added to each well. After incubation of the cells at 37° C. for 5 days, cell viability was quantitated with the use of sodium 3′-[1-(phenylamino-carbonyl)-3,4-tetrazolium}-bis(4-methoxy-6-nitro)benzene sulfonic acid hydrate (XTT) colorimetric assay (Roche). XTT labeling reagent (1 mg/mL) was mixed with electron-coupling reagent, following the manufacturer's instructions, and 50 μL of the mixture was added directly to the cells. The plates were further incubated at 37° C. for 4 h, and the absorbance of each well was measured at 490 nm with a multiwell spectrophotometer (Bio-Tek Instruments Inc.). The data were adjusted relative to the blank and expressed as a percentage of cell growth compared with the vehicle control. (Ref. Huesca et al., Mol Cancer Ther. 2009. 8:2586-96; Lorus publication on LOR-133)

Ramos = experiment: XTT antiproliferative assay; type: cell-based; settings: Homo sapiens, 120 h, Non-Hodgkin's Lymphoma, 5 days incubation
Description: as §2

Mino = experiment: XTT antiproliferative assay; type: cell-based; settings: Homo sapiens, 120 h, Non-Hodgkin's Lymphoma, 5 days incubation
Description: as §2

HuNS1 = experiment: XTT antiproliferative assay; type: cell-based; settings: 120 h; HuNS1, Multiple myeloma; 5 days incubation
Description: as §2

OCI-AML2 = experiment: XTT antiproliferative assay; type: cell-based; settings: Homo sapiens, 120 h; OCI-AML2, Acute myeloid leukemia; 5 days incubation
Description: as §2

HEL92.1.7 = experiment: XTT antiproliferative assay; type: cell-based; settings: Homo sapiens, HEL 92.1.7, 120 h; HEL92.1.7, Acute myeloid leukemia; 5 days incubation
Description: as §2

U266B1 = experiment: XTT antiproliferative assay; type: cell-based; settings: 120 h; U266B1, Multiple myeloma; 5 days incubation
Description: as §2

MM.1R = experiment: XTT antiproliferative assay; type: cell-based; settings: 120 h, Multiple myeloma, 5 days incubation
Description: as §2

NB4 = experiment: XTT antiproliferative assay; type: cell-based; settings: Homo sapiens, NB-4, 120 h; NB4, Acute myeloid leukemia; 5 days incubation
Description: as §2

CCRF-CEM = experiment: XTT antiproliferative assay; type: cell-based; settings: Homo sapiens, 120 h, Acute lymphoblastic leukemia, 5 days incubation
Description: as §2

MV-4-11 = experiment: XTT antiproliferative assay; type: cell-based; settings: Homo sapiens, MV4-11, 120 h; MV-4-11, Acute myeloid leukemia; 5 days incubation
Description: as §2

Raji = experiment: XTT antiproliferative assay; type: cell-based; settings: Homo sapiens, 120 h, Non-Hodgkin's Lymphoma, 5 days incubation
Description: as §2

NOMO-1 = experiment: XTT antiproliferative assay; type: cell-based; settings: Homo sapiens, 120 h; NOMO-1, Acute myeloid leukemia; 5 days incubation
Description: as §2

K562 = experiment: XTT antiproliferative assay; type: cell-based; settings: Homo sapiens, 120 h; K562, Chronic Myelogenous Leukemia; 5 days incubation
Description: as §2

Jurkat = experiment: XTT antiproliferative assay; type: cell-based; settings: Homo sapiens, 120 h, Acute lymphoblastic leukemia, 5 days incubation
Description: as §2

HL-60 [2] = experiment: XTT antiproliferative assay; type: cell-based; settings: Homo sapiens, 120 h; HL-60, Acute myeloid leukemia; 5 days incubation
Description: as §2

MOLM13 (CD47+) = experiment: XTT antiproliferative assay; type: cell-based; settings: Homo sapiens, MOLM-13, 120 h, Acute myeloid leukemia, 5 days incubation
Description: as §2

KG-1 = experiment: XTT antiproliferative assay; type: cell-based; settings: Homo sapiens, 120 h; KG-1, Acute myeloid leukemia; 5 days incubation
Description: as §2

CA46 = experiment: XTT antiproliferative assay; type: cell-based; settings: Homo sapiens, 120 h; CA46, Non-Hodgkin's Lymphoma; 5 days incubation
Description: as §2

THP-1 = experiment: XTT antiproliferative assay; type: cell-based; settings: Homo sapiens, 120 h; THP-1, Acute myeloid leukemia; 5 days incubation
Description: as §2

Toledo = experiment: XTT antiproliferative assay; type: cell-based; settings: Homo sapiens, 120 h, Non-Hodgkin's Lymphoma, 5 days incubation
Description: as §2

MOLT-4 = experiment: XTT antiproliferative assay; type: cell-based; settings: Homo sapiens, 120 h; MOLT-4, Acute lymphoblastic leukemia; 5 days incubation
Description: as §2

EOL-1 = experiment: XTT antiproliferative assay; type: cell-based; settings: Homo sapiens, EOL1, 120 h; EOL-1, Acute myeloid leukemia; 5 days incubation
Description: as §2

DB = experiment: XTT antiproliferative assay; type: cell-based; settings: Homo sapiens, 120 h, Non-Hodgkin's Lymphoma, 5 days incubation
Description: as §2

SKM-1 = experiment: XTT antiproliferative assay; type: cell-based; settings: Homo sapiens, 120 h; SKM-1, Acute myeloid leukemia; 5 days incubation
Description: as §2

Kasumi-1 = experiment: XTT antiproliferative assay; type: cell-based; settings: Homo sapiens, 120 h; Kasumi-1, Acute myeloid leukemia; 5 days incubation
Description: as §2

H226 xenograft = H226 xenograft model, dose and schedule; type: in vivo, mice; settings: groups 2, 3 and 4: 10 mg/kg-iv, schedules 3T-12B-3T, 2T-5B-2T, 3T-5B-3T, 2 cycles

Cc1[nH]c2ccc(F)cc2c1-c1nc2c3cccnc3c3ncccc3c2[nH]1 [LOR-253]
cell cycle effect (THP1): G1/S cell cycle arrest
cell cycle effect (HL-60 [1]): G1/S cell cycle arrest
IC50 (RL): 190 nM
IC50 (Ramos): 125 nM
IC50 (Mino): 140 nM
IC50 (HuNS1): 72 nM
IC50 (OCI-AML2): 76 nM
IC50 (HEL92.1.7): 305 nM
IC50 (U266B1): 180 nM
IC50 (MM.1R): 150 nM
IC50 (NB4): 60 nM
IC50 (CCRF-CEM): 39 nM
IC50 (MV-4-11): 69 nM
IC50 (Raji): 11 nM
IC50 (NOMO-1): 121 nM
IC50 (K562): 250 nM
IC50 (Jurkat): 71 nM
IC50 (HL-60 [2]): 46 nM
IC50 (MOLM13 (CD47+)): 130 nM
IC50 (KG-1): 33 nM
IC50 (CA46): 190 nM
IC50 (THP-1): 77 nM
IC50 (Toledo): 77 nM
IC50 (MOLT-4): 70 nM
IC50 (EOL-1): 58 nM
IC50 (DB): 99 nM
IC50 (SKM-1): 145 nM
IC50 (Kasumi-1): 6.9 nM
tumor size, H226 xenograft (H226 xenograft): effectively treated
